According to ChEMBL document CHEMBL1138377, “N-Substituted carbazolyloxyacetic acids modulate Alzheimer associated gamma-secretase” (Bioorg Med Chem Lett, 2007):
Calls of active or inactive are those of the source. The rule behind the calls is not given here.

Key:
[1] = target: Gamma-secretase; experiment: Effect on gamma-secretase activity in human H4 cells expressing APP695 assessed as reduction of Amyloid beta-40 formation LPECL assay; assay type: cell-based
[2] = tested on: H4; experiment: Cytotoxicity against human H4 cells assessed as reduction of viability; assay type: cell-based
[3] = target: Gamma-secretase; experiment: Effect on gamma-secretase activity in human H4 cells expressing APP695 assessed as increase in Amyloid beta-38 formation by LPECL assay; assay type: cell-based; details: read-out: IC50 (the source's name)
[4] = target: Gamma-secretase; experiment: Effect on gamma-secretase activity in human H4 cells expressing APP695 assessed as reduction of Amyloid beta42 formation LPECL assay; assay type: cell-based
[5] = target: Prostaglandin G/H synthase 1 (Homo sapiens) (UniProt P23219); experiment: Activity of COX1 at 10 uM
[6] = target: T1, Prostaglandin G/H synthase 2 (Homo sapiens) (UniProt P35354); experiment: Activity of COX2 at 10 uM
T1 sequence (whole entry): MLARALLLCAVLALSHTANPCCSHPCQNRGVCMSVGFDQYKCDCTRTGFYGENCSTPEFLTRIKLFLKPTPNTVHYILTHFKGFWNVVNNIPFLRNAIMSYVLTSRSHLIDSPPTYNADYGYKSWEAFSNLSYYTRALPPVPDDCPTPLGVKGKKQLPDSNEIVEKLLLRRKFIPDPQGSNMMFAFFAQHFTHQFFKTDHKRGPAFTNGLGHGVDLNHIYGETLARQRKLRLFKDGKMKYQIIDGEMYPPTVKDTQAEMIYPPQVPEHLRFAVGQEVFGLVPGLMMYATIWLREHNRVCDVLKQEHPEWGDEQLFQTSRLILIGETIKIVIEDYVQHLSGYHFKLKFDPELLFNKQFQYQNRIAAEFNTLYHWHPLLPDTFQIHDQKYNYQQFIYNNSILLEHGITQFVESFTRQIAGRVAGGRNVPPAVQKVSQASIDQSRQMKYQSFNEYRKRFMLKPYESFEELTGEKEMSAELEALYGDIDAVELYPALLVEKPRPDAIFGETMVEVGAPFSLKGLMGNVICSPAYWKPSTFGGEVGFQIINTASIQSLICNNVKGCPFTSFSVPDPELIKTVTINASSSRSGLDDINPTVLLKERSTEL

Prostaglandin G/H synthase 1 (Homo sapiens), sequence (P23219 whole entry): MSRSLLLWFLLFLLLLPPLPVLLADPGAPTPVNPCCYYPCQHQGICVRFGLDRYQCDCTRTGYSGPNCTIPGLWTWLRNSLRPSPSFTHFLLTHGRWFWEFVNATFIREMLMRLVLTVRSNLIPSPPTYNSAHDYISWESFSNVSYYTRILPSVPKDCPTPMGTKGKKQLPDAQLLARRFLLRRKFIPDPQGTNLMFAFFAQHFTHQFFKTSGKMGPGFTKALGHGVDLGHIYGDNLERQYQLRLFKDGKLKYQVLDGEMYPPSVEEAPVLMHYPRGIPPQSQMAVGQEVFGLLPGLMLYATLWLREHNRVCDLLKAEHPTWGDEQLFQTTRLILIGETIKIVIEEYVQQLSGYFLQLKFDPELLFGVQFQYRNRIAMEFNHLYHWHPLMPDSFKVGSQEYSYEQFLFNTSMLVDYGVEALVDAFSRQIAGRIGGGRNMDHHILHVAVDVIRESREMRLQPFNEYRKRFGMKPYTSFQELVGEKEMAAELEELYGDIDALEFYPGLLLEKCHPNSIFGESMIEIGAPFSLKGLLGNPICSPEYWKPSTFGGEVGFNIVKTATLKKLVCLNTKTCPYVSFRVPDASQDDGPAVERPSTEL

Compound: O=C(O)COc1ccc2c3ccccc3n(S(=O)(=O)c3cccc([N+](=O)[O-])c3)c2c1
- IC50 [1]: > 40 µM
- Activity [2]: 40 µM
- EC50 [3]: 16 µM
- IC50 [4]: > 40 µM

Compound: O=C(O)COc1ccc2c3ccccc3n(S(=O)(=O)c3ccccc3Br)c2c1
- IC50 [1]: > 40 µM
- Activity [2]: 40 µM
- EC50 [3]: > 40 µM
- IC50 [4]: > 40 µM

Compound: O=C(O)COc1ccc2c3ccccc3n(S(=O)(=O)c3cc(C(F)(F)F)cc(C(F)(F)F)c3)c2c1
- IC50 [1]: > 40 µM
- Activity [2]: 20 µM
- EC50 [3]: > 40 µM
- IC50 [4]: > 40 µM

Compound: O=C(O)COc1ccc2c3ccccc3n(S(=O)(=O)c3cc(F)cc(F)c3)c2c1
- IC50 [1]: > 40 µM
- Activity [2]: 40 µM
- EC50 [3]: 13 µM
- IC50 [4]: > 40 µM

Compound: C[C@H](c1ccc(F)cc1CCCC(=O)O)N(c1cc(F)ccc1F)S(=O)(=O)c1ccc(Cl)cc1
- IC50 [4]: 0.0071 µM

Compound: O=C(O)COc1ccc2c3ccccc3n(S(=O)(=O)c3ccc(Cl)cc3)c2c1
- IC50 [1]: > 40 µM
- Activity [2]: 40 µM
- EC50 [3]: 32 µM
- IC50 [4]: 32 µM

Compound: O=C(O)COc1ccc2c3ccccc3n(S(=O)(=O)c3ccc(-c4ccccc4)cc3)c2c1
- IC50 [1]: 40 µM
- Activity [2]: 20 µM
- EC50 [3]: 13 µM
- IC50 [4]: 24 µM

Compound: CCCCCCCCc1ccc(S(=O)(=O)n2c3ccccc3c3ccc(OCC(=O)O)cc32)cc1
- IC50 [1]: > 40 µM
- Activity [2]: > 40 µM
- IC50 [4]: 37 µM

Compound: CCCCCCCCCCn1c2ccc(Cl)cc2c2ccc(C(C)C(=O)O)cc21 (configuration not stated)
- IC50 [1]: > 40 µM
- EC50 [3]: 5.8 µM
- IC50 [4]: 2.9 µM

Compound: Cc1ccc(S(=O)(=O)n2c3ccccc3c3ccc(OCC(=O)O)cc32)cc1
- IC50 [1]: > 40 µM
- Activity [2]: 20 µM
- EC50 [3]: 13 µM
- IC50 [4]: 39 µM

Compound: CCCCCCCCCn1c2ccccc2c2ccc(OCC(=O)O)cc21
- IC50 [1]: > 40 µM
- Activity [2]: > 40 µM
- EC50 [3]: 30 µM
- IC50 [4]: 17 µM

Compound: CCCc1ccc(S(=O)(=O)n2c3ccccc3c3ccc(OCC(=O)O)cc32)cc1
- IC50 [1]: > 40 µM
- Activity [2]: > 40 µM
- IC50 [4]: 38 µM

Compound: CCCCCCCCCCn1c2ccccc2c2ccc(OCC(=O)O)cc21
- IC50 [1]: > 40 µM
- Activity [2]: > 40 µM
- IC50 [4]: 11 µM

Compound: CCCCCCCCn1c2ccccc2c2ccc(OCC(=O)O)cc21
- IC50 [1]: > 40 µM
- Activity [2]: > 40 µM
- EC50 [3]: 24 µM
- IC50 [4]: 19 µM

Compound: CC(C)c1cc(C(C)C)c(S(=O)(=O)n2c3ccc(Cl)cc3c3ccc(C(C)C(=O)O)cc32)c(C(C)C)c1 (configuration not stated)
- IC50 [1]: > 20 µM
- EC50 [3]: 9.3 µM
- IC50 [4]: 8.5 µM

Compound: CC(C)c1cc(C(C)C)c(S(=O)(=O)n2c3ccccc3c3ccc(OCC(=O)O)cc32)c(C(C)C)c1
- Activity [5]: inactive
- Activity [6]: inactive
- IC50 [1]: 19 µM
- Activity [2]: 20 µM
- EC50 [3]: 7.8 µM
- IC50 [4]: 7.5 µM

Compound: O=C(O)COc1ccc2c(c1)[nH]c1ccccc12
- IC50 [1]: > 40 µM
- Activity [2]: > 40 µM
- EC50 [3]: > 40 µM
- IC50 [4]: > 40 µM
